According to US20090123397A1, “Microbiocidal compositions” (Thor Specialities (UK) Limited, priority 2005, published 2009):

Tests used:
Test in all cases: MIC / growth test of MIT and CAG mixtures in Müller-Hinton broth
Parameters in all cases: key to growth of the micro-organism: growth of the micro-organism took place (symbol “+”); or not (symbol “−”)
Pseudomonas aeruginosa = format: cell-based, Pseudomonas aeruginosa ATCC 9027; details: 72 h
Method: (§1) For this purpose, aqueous mixtures were produced with various concentrations of 2-methylisothiazolin-3-one (MIT) and caprylyl glycol (CAG) and the activity of these mixtures were tested on the micro-organisms listed in Table VI.
(§2) In addition to the active component(s) and water, the aqueous mixtures contained a nutrient medium, namely a Müller-Hinton broth (Manufacturer: Oxoid; product code CM405). The incubation time was 72 h at 25° C. (bacterial and yeast) or 7 days at 25° C. (mould). Each sample was incubated on an incubation shaker at 105 rpm.
(§3) The tables also show whether growth of the micro-organism took place (symbol “+”) or not (symbol “−”).
(§4) Tables I to V also show the minimum inhibition concentrations (MIC).
(§5) The synergy index is calculated according to the method of F. C. Kull et al., Applied Microbiology, Vol. 9 (1961), p. 538. Here the synergy index is calculated using the following formula:
(§6) Synergy index=Qa/QA+Qb/QB
(§7) When this formula is used on the biocide system tested here, the quantities in the formula have the following meaning: • Qa=MIC of MIT in the preservative mixture of MIT and CAG • QA=MIC of MIT as sole ingredient • Qb=MIC of CAG in the preservative mixture of MIT and CAG • QB=MIC of CAG as sole ingredient
(§8) When the synergy index has the value 1, this means that there is an addition of the activity of the two ingredients. When the synergy index has a value of less than 1, this means that a synergy of the two ingredients exists.

Staphylococcus aureus = format: cell-based, Staphylococcus aureus ATCC 6538; details: 72 h
Method: as §1, §2, §3, §4, §5, §6, §7, §8

Enterococcus faecalis = format: cell-based, Enterococcus faecalis NCIMB 12756; details: 72 h
Method: as §1, §2, §3, §4, §5, §6, §7, §8

Aspergillus niger = format: cell-based, Aspergillus niger IMI 149007; details: 5 days
Method: as §1
In addition to the active component(s) and water, the aqueous mixtures contained a nutrient medium, namely a Müller-Hinton broth (Manufacturer: Oxoid; product code CM405). […] (mould). Each sample was incubated on an incubation shaker at 105 rpm.
as §3, §4, §5, §6, §7, §8

Candida albicans = format: cell-based, Candida albicans NCPF 3179; details: 72 h
Method: as §1, §2, §3, §4, §5, §6, §7, §8

**Q.** For `CCCCCCC(O)CO` (centres unmarked) [CAG, caprylyl glycol], which “QB (CAG): MIC of CAG as sole ingredient” value (Pseudomonas aeruginosa) is on record?
**A.** 4000 ppm

**Q.** What about the “growth of the micro-organism” value (Pseudomonas aeruginosa; MIT 0 ppm, CAG 500 ppm) of the same molecule?
**A.** +

**Q.** What about the “growth of the micro-organism” value (Pseudomonas aeruginosa; MIT 0 ppm, CAG 1000 ppm) of the same molecule?
**A.** +

**Q.** What about the “growth of the micro-organism” value (Pseudomonas aeruginosa; MIT 0 ppm, CAG 2000 ppm) of the same molecule?
**A.** +

**Q.** What about the “growth of the micro-organism” value (Pseudomonas aeruginosa; MIT 0 ppm, CAG 3000 ppm) of the same molecule?
**A.** +

**Q.** And the “growth of the micro-organism” value (Pseudomonas aeruginosa; MIT 0 ppm, CAG 4000 ppm)?
**A.** −

**Q.** What about the “QB (CAG): MIC of CAG as sole ingredient” value (Staphylococcus aureus) of the same molecule?
**A.** 1000 ppm

**Q.** What about the “growth of the micro-organism” value (Staphylococcus aureus; MIT 0 ppm, CAG 500 ppm) of the same molecule?
**A.** +

**Q.** And the “growth of the micro-organism” value (Staphylococcus aureus; MIT 0 ppm, CAG 1000 ppm)?
**A.** −

**Q.** And the “growth of the micro-organism” value (Staphylococcus aureus; MIT 0 ppm, CAG 2000 ppm)?
**A.** −

**Q.** And the “growth of the micro-organism” value (Staphylococcus aureus; MIT 0 ppm, CAG 3000 ppm)?
**A.** −

**Q.** What about the “growth of the micro-organism” value (Staphylococcus aureus; MIT 0 ppm, CAG 4000 ppm) of the same molecule?
**A.** −

**Q.** What about the “QB (CAG): MIC of CAG as sole ingredient” value (Enterococcus faecalis) of the same molecule?
**A.** 2000 ppm

**Q.** What about the “growth of the micro-organism” value (Enterococcus faecalis; MIT 0 ppm, CAG 500 ppm) of the same molecule?
**A.** +

**Q.** And the “growth of the micro-organism” value (Enterococcus faecalis; MIT 0 ppm, CAG 1000 ppm)?
**A.** +

**Q.** And the “growth of the micro-organism” value (Enterococcus faecalis; MIT 0 ppm, CAG 2000 ppm)?
**A.** −

**Q.** What about the “growth of the micro-organism” value (Enterococcus faecalis; MIT 0 ppm, CAG 3000 ppm) of the same molecule?
**A.** −

**Q.** And the “growth of the micro-organism” value (Enterococcus faecalis; MIT 0 ppm, CAG 4000 ppm)?
**A.** −

**Q.** What about the “QB (CAG): MIC of CAG as sole ingredient” value (Aspergillus niger) of the same molecule?
**A.** 2000 ppm

**Q.** And the “growth of the micro-organism” value (Aspergillus niger; MIT 0 ppm, CAG 500 ppm)?
**A.** +

**Q.** And the “growth of the micro-organism” value (Aspergillus niger; MIT 0 ppm, CAG 1000 ppm)?
**A.** +

**Q.** What about the “growth of the micro-organism” value (Aspergillus niger; MIT 0 ppm, CAG 2000 ppm) of the same molecule?
**A.** −

**Q.** And the “growth of the micro-organism” value (Aspergillus niger; MIT 0 ppm, CAG 3000 ppm)?
**A.** −

**Q.** And the “growth of the micro-organism” value (Aspergillus niger; MIT 0 ppm, CAG 4000 ppm)?
**A.** −

**Q.** What about the “QB (CAG): MIC of CAG as sole ingredient” value (Candida albicans) of the same molecule?
**A.** 3000 ppm

**Q.** And the “growth of the micro-organism” value (Candida albicans; MIT 0 ppm, CAG 500 ppm)?
**A.** +

**Q.** What about the “growth of the micro-organism” value (Candida albicans; MIT 0 ppm, CAG 1000 ppm) of the same molecule?
**A.** +

**Q.** What about the “growth of the micro-organism” value (Candida albicans; MIT 0 ppm, CAG 2000 ppm) of the same molecule?
**A.** +

**Q.** What about the “growth of the micro-organism” value (Candida albicans; MIT 0 ppm, CAG 3000 ppm) of the same molecule?
**A.** −

**Q.** And the “growth of the micro-organism” value (Candida albicans; MIT 0 ppm, CAG 4000 ppm)?
**A.** −

**Q.** For `Cn1sccc1=O` [MIT, 2-methylisothiazolin-3-one], which “QA (MIT): MIC of MIT as sole ingredient” value (Pseudomonas aeruginosa) is on record?
**A.** 25 ppm

**Q.** What about the “growth of the micro-organism” value (Pseudomonas aeruginosa; MIT 10 ppm, CAG 0 ppm) of the same molecule?
**A.** +

**Q.** And the “growth of the micro-organism” value (Pseudomonas aeruginosa; MIT 25 ppm, CAG 0 ppm)?
**A.** −

**Q.** And the “growth of the micro-organism” value (Pseudomonas aeruginosa; MIT 37.5 ppm, CAG 0 ppm)?
**A.** −

**Q.** And the “growth of the micro-organism” value (Pseudomonas aeruginosa; MIT 50 ppm, CAG 0 ppm)?
**A.** −

**Q.** What about the “growth of the micro-organism” value (Pseudomonas aeruginosa; MIT 75 ppm, CAG 0 ppm) of the same molecule?
**A.** −

**Q.** And the “QA (MIT): MIC of MIT as sole ingredient” value (Staphylococcus aureus)?
**A.** 25 ppm

**Q.** And the “growth of the micro-organism” value (Staphylococcus aureus; MIT 10 ppm, CAG 0 ppm)?
**A.** +

**Q.** And the “growth of the micro-organism” value (Staphylococcus aureus; MIT 25 ppm, CAG 0 ppm)?
**A.** −

**Q.** What about the “growth of the micro-organism” value (Staphylococcus aureus; MIT 37.5 ppm, CAG 0 ppm) of the same molecule?
**A.** −

**Q.** What about the “growth of the micro-organism” value (Staphylococcus aureus; MIT 50 ppm, CAG 0 ppm) of the same molecule?
**A.** −

**Q.** What about the “growth of the micro-organism” value (Staphylococcus aureus; MIT 75 ppm, CAG 0 ppm) of the same molecule?
**A.** −

**Q.** And the “QA (MIT): MIC of MIT as sole ingredient” value (Enterococcus faecalis)?
**A.** 75 ppm

**Q.** And the “growth of the micro-organism” value (Enterococcus faecalis; MIT 10 ppm, CAG 0 ppm)?
**A.** +

**Q.** And the “growth of the micro-organism” value (Enterococcus faecalis; MIT 25 ppm, CAG 0 ppm)?
**A.** +

**Q.** And the “growth of the micro-organism” value (Enterococcus faecalis; MIT 37.5 ppm, CAG 0 ppm)?
**A.** +

**Q.** And the “growth of the micro-organism” value (Enterococcus faecalis; MIT 50 ppm, CAG 0 ppm)?
**A.** +

**Q.** What about the “growth of the micro-organism” value (Enterococcus faecalis; MIT 75 ppm, CAG 0 ppm) of the same molecule?
**A.** −

**Q.** And the “QA (MIT): MIC of MIT as sole ingredient” value (Aspergillus niger)?
**A.** 300 ppm

**Q.** What about the “growth of the micro-organism” value (Aspergillus niger; MIT 10 ppm, CAG 0 ppm) of the same molecule?
**A.** +

**Q.** What about the “growth of the micro-organism” value (Aspergillus niger; MIT 25 ppm, CAG 0 ppm) of the same molecule?
**A.** +

**Q.** And the “growth of the micro-organism” value (Aspergillus niger; MIT 37.5 ppm, CAG 0 ppm)?
**A.** +

**Q.** What about the “growth of the micro-organism” value (Aspergillus niger; MIT 50 ppm, CAG 0 ppm) of the same molecule?
**A.** +

**Q.** And the “growth of the micro-organism” value (Aspergillus niger; MIT 75 ppm, CAG 0 ppm)?
**A.** +

**Q.** And the “growth of the micro-organism” value (Aspergillus niger; MIT 100 ppm, CAG 0 ppm)?
**A.** +

**Q.** And the “growth of the micro-organism” value (Aspergillus niger; MIT 200 ppm, CAG 0 ppm)?
**A.** +

**Q.** And the “growth of the micro-organism” value (Aspergillus niger; MIT 300 ppm, CAG 0 ppm)?
**A.** −

**Q.** What about the “QA (MIT): MIC of MIT as sole ingredient” value (Candida albicans) of the same molecule?
**A.** 200 ppm

**Q.** And the “growth of the micro-organism” value (Candida albicans; MIT 10 ppm, CAG 0 ppm)?
**A.** +

**Q.** And the “growth of the micro-organism” value (Candida albicans; MIT 25 ppm, CAG 0 ppm)?
**A.** +

**Q.** And the “growth of the micro-organism” value (Candida albicans; MIT 37.5 ppm, CAG 0 ppm)?
**A.** +

**Q.** What about the “growth of the micro-organism” value (Candida albicans; MIT 50 ppm, CAG 0 ppm) of the same molecule?
**A.** +

**Q.** What about the “growth of the micro-organism” value (Candida albicans; MIT 75 ppm, CAG 0 ppm) of the same molecule?
**A.** +

**Q.** And the “growth of the micro-organism” value (Candida albicans; MIT 100 ppm, CAG 0 ppm)?
**A.** +

**Q.** And the “growth of the micro-organism” value (Candida albicans; MIT 200 ppm, CAG 0 ppm)?
**A.** −
